Legend:
[1] = biological target: FPR1 (Homo sapiens, UniProt P21462); assay: cell-based; conditions: FPR1-expressing RBL-2H3 cell line
Protocol: To investigate whether activation of FPR1, which is important in regulating the activity of innate immune cells, is induced by the WKYMVm peptide analogs, changes in calcium ions were measured in RBL-2H3 cell line, a type of mast cell that artificially expressed FPR1. […] On the other hand, an increase in intracellular calcium ions by WKYMVβm (V is a β-amino acid) through activation of FPR1 was not observed.

[2] = biological target: FPR2 (Homo sapiens, UniProt P25090); assay: cell-based; conditions: FPR2-expressing RBL-2H3 cell line
Sequence of FPR2 (P25090 whole entry): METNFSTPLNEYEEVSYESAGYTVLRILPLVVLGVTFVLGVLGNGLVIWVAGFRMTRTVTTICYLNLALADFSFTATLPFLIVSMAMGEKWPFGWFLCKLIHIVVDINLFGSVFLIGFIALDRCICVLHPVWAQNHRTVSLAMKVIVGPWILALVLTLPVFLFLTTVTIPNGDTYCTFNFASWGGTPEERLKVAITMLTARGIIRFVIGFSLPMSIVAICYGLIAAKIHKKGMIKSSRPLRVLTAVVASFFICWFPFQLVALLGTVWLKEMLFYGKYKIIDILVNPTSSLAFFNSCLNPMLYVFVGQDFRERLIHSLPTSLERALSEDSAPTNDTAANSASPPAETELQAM
Protocol: To investigate whether activation of FPR2 is induced by the WKYMVm peptide analogs, changes in calcium ions were measured in RBL-2H3 cell line that artificially expressed FPR2.

[3] = system: neutrophils; assay: Superoxide anion (ROS) production in neutrophils; format: cell-based
Protocol: The effect of superoxide anion production in neutrophils by the peptoid-comprising analogs in which a peptoid residue was substituted for K, Y, and M in the structure of WKYMVm was measured.

[4] = system: neutrophils; assay: Degranulation activity of neutrophils (beta-hexosaminidase activity); format: cell-based
Protocol: The degranulation activity of neutrophils by the analogs in which each amino acid in the structure of WKYMVm was substituted with a β-amino acid was compared and analyzed by measuring beta-hexosaminidase activity.
The degranulation activity of neutrophils by the peptoid-containing analogs in which a peptoid residue was substituted for K, Y, and M in the structure of WKYMVm was measured.

[5] = system: neutrophils; assay: Neutrophil chemotaxis assay using a Boyden chamber; format: cell-based
Protocol: To investigate the effect of the WKYMVm peptide analogs on the regulation of immune cell mobility, which a representative function of FPR, a chemotaxis assay was performed using a Boyden chamber.
To measure the in vitro innate immune activity of four peptides comprising one non-natural β^3-amino acid residue, the effect of enhancing neutrophil mobility was measured.

[6] = system: neutrophils isolated from mouse bone marrow; assay: Cytokine secretion of neutrophils by ELISA, with or without LPS; format: cell-based; conditions: 1 μM
Protocol: Neutrophils regulate the activity of other immune cells through the production of various types of cytokines. To investigate the effect of the WKYMVm peptide analogs on regulating cytokine production in neutrophils, […], and 24 hours later, the supernatants were collected and subjected to an enzyme-linked immunosorbent assay (ELISA) to measure the amount of cytokine secretion.

[7] = system: neutrophils

Sequence of FPR1 (P21462 whole entry): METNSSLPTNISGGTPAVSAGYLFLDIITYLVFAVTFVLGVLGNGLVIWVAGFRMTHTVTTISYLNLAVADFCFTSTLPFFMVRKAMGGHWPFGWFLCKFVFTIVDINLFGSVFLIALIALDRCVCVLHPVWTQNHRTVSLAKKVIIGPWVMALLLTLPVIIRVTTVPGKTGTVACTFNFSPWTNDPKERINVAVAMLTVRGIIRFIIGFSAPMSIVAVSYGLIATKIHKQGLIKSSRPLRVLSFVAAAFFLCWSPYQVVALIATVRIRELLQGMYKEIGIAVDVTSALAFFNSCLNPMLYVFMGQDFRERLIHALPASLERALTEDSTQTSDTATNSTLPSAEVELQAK

Question: With `CSCC[C@H](NC(=O)[C@H](Cc1ccc(O)cc1)NC(=O)[C@H](CCCCN)NC(=O)[C@@H](N)Cc1c[nH]c2ccccc12)C(=O)N[C@H](CC(=O)N[C@H](CCSC)C(N)=O)C(C)C` [WKYMVβm] as the molecule, how does the “increase in intracellular calcium ions through activation of FPR1 (in words)” value [1] read?
Answer: not observed

Question: And the “increase in intracellular calcium ions through activation of FPR2 (in words)” value [2]?
Answer: not observed

Question: And the “superoxide anion production in neutrophils” value [3]?
Answer: did not induce superoxide anion production

Question: And the “degranulation activity of neutrophils” value [4]?
Answer: did not induce the degranulation activity of neutrophils

Question: What about the “effect of enhancing neutrophil mobility, compared with the WKYMVm peptide” value [5] of the same molecule?
Answer: weak activity only at high concentrations

Question: And the “neutrophil mobility at 1 μM” value ([5]; 1 μM)?
Answer: highly active neutrophil mobility promotion effect was induced

Question: What about the “neutrophil mobility at a low concentration” value ([5]; low concentration) of the same molecule?
Answer: not promoted

Question: What about the “effect in regulating the neutrophil activity (LPS-induced cytokines)” value [6] of the same molecule?
Answer: minimal effect

Question: What about the “calcium ion-increasing effect in neutrophils” value [7] of the same molecule?
Answer: not exhibited

Reference: patent US20250032573A1, “IMMUNITY-ENHANCING PEPTIDE ANALOGS AND USES THEREOF” (RESEARCH & BUSINESS FOUNDATION SUNGKYUNKWAN UNIVERSITY, priority 2023, published 2025)
